Consider one molecule from patent publication US4218456A, “1-(4-Fluorophenyl)-4-(1,2,3,6-tetrahydro-4-phenoxy-1-pyridinyl)-butanones” (Warner-Lambert Company, priority 1978, dated 1980).

The test system of this assay is dopamine receptor binding sites. Put plainly: 3H-Haloperidol Receptor Binding Assay (HRBA). The note with it: at 10^-8 mol/L concentration in vitro. From the text:
As with other known antipsychotics, the compounds of formula I readily displace ^3 H-haloperidol from dopamine receptor binding sites in the ^3 H-Haloperidol Receptor Binding Assay (HRBA). […] The HRBA screen is described by I. Creese, D. R. Burt and S. H. Snyder, Science, 192, 481 (1976) and P. Seeman, T. Lee, M. Chan-Wong and K. Wong, Nature, 261, 717 (1976).

Turning to `O=C(CCCN1CC=C(Oc2ccc(F)cc2)CC1)c1ccc(F)cc1` [Example 9, 4-[4-(4-Fluorophenoxy)-1,2,3,6-tetrahydro-1-pyridinyl]-1-(4-fluorophenyl)-1-butanone(Z)-2-Butenedioate], the “inhibition of 3H-haloperidol” value is listed as 87%.
